Values quoted from earlier work as cited in patent US6900203B2, “Optically active fluorinated vasoconstrictors, methods for making them, and anesthetic formulations comprising them” (Polium Technologies, Inc., priority 2002, dated 2005).
Where two headings read alike, the source gives them in different places.

Columns and labels:
[1] = tested on: α1/β adrenergic receptors
[2] = tested on: α2/β adrenergic receptors
α1-receptors = conditions: read-out: Receptor affinity α1
β1 = β1 (Homo sapiens, UniProt P08588); conditions: read-out: Receptor affinity β1
β2 = β2 (Homo sapiens, UniProt P07550); conditions: read-out: Receptor affinity β2
α-receptors = conditions: order of magnitude

Sequence of β1 (P08588 whole entry): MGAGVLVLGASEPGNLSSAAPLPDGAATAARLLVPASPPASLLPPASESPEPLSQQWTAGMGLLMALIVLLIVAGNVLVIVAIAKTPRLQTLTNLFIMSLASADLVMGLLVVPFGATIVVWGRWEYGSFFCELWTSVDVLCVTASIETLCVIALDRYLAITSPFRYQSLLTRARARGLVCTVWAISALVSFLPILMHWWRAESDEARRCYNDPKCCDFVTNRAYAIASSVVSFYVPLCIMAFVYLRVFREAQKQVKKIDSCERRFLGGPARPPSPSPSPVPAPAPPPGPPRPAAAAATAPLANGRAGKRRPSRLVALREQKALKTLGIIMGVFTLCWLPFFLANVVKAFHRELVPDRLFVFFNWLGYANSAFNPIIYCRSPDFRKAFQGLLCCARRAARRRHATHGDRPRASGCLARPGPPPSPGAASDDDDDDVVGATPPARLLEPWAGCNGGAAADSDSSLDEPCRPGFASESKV
Sequence of β2 (P07550 whole entry): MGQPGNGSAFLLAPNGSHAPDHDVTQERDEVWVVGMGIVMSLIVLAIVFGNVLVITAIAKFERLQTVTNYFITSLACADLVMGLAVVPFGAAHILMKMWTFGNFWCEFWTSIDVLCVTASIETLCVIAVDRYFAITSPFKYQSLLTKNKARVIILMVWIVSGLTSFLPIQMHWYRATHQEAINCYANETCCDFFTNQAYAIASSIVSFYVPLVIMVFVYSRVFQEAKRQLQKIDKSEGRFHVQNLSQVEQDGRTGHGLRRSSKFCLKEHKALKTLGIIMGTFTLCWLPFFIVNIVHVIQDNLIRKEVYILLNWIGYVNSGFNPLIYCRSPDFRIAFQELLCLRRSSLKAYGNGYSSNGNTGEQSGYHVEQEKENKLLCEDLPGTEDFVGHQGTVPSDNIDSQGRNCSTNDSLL

Ki (α2-receptors; order of magnitude, read-out: binding constant with respect to α2-receptors) [µM] | binding constants with α-receptors (α-receptors) | SMILES | α1/β selectivity [1] | α2/β selectivity [2] [fold] | Ki (α1-receptors) [µM] | Ki (α2-receptors; read-out: Receptor affinity α2) [µM] | Ki (β1) [µM] | Ki (β2) [µM]
– | – | CNCC(O)c1cc(O)ccc1F (stereo not shown) [6F-phenylephrine] | 86-140 fold | 780 | – | – | – | –
– | – | CNC[C@H](O)c1ccc(O)c(O)c1F [(R)-2F-epinephrine] | – | – | ~25 | 0.067 ± 0.003 | 0.56 ± 0.03 | 0.11 ± 0.03
– | – | CNC[C@H](O)c1cc(O)c(O)cc1F [(R)-6F-epinephrine, 2-methylamino-1R-[(3,4-dihydroxy-6-fluoro)-phenyl]ethanol] | – | – | 2.5 ± 0.1 | 0.013 ± 0.002 | ~100 | 38 ± 7
~0.01 | – | CNC[C@H](O)c1ccc(O)c(O)c1 [(R)-epinephrine] | – | – | – | 0.013 ± 0.002 | – | –
– | on the order of several | CNC[C@H](O)c1cccc(O)c1 [(R)-phenylephrine, 2-methylamino-1R-(3-hydroxyphenyl)ethanol] | 2-5 fold | 33 | – | – | – | –
– | – | CNC[C@@H](O)c1ccc(O)c(O)c1F [(S)-2F-epinephrine] | – | – | ~40 | 0.053 ± 0.001 | ~150 | ~25
– | – | CNC[C@@H](O)c1cc(O)c(O)cc1F [(S)-6F-epinephrine] | – | – | ~70 | 0.078 ± 0.001 | ~400 | ~90
– | – | CNC[C@@H](O)c1ccc(O)c(O)c1 [(S)-epinephrine] | – | – | ~20 | 0.045 ± 0.003 | – | –
